# PMC7705431 (Cell Research, 2020)
# What was measured:
# SARS-CoV-2 = format: cell-based
# [1] = cited from earlier work
# in vitro = conditions: Vero E6 cells
# [2] = cited from earlier work; remark: listed apart in the source
# human ACE2 = biological target: T1, human ACE2 (Homo sapiens, UniProt Q9BYF1); assay: SPR binding to immobilized human ACE2 (BIAcore S200); conditions: read-out: ka
# T1 construct: purchased Sino Biological Inc. 10108-H08B
# Method: The remaining activated sites on the chip were blocked with 75 μL of ethanolamine (1 M, pH 8.5). […] The equilibrium dissociation constant (KD) for binding as well as the association (Ka) and dissociation (Kd) rate constants were determined using the BIA evaluation program (GE, USA).
# [3] = rhesus monkey, in vivo
# cathepsin L = biological target: T2, cathepsin L (Homo sapiens, UniProt P07711); assay: Cathepsin L activity assay (fluorometric kit); format: biochemical
# T2 construct: purchased Abcam ab65306
# Method: A positive control of cathepsin L inhibitor I (CTSL, MG-101, 20 μM) was provided in the kit. A total of 2 μL of 10 mM Ac-FR-AFC substrate was added to each well. The samples were incubated at 37 °C for 2 h. Fluorescence was measured using a multifunctional microplate reader (Cytation 3, BioTek, Winooski, VT, USA), at an excitation wavelength of 400 nm and an emission wavelength of 505 nm.
# [4] = preclinical and clinical studies; cited from earlier work
# [5] = biological target: T3, SARS-CoV-2 spike protein–ACE2 interaction (Homo sapiens, UniProt Q9BYF1); assay: ELISA of SARS-CoV-2 spike protein binding to ACE2 crosslinked to microplates; format: biochemical; conditions: drug 1 μM; 1 h 37 °C
# [6] = biological target: T3, SARS-CoV-2 spike protein–ACE2 interaction; assay: co-IP of SARS-CoV-2 spike protein with ACE2, western blot; format: biochemical; conditions: drug 10 μM; western blot with anti-ACE2 antibody
# Method: Co-IP was performed as follows. […] The blots were incubated with anti-rabbit IgG HRP (KPL, USA) and imaged using electrochemiluminescence (ECL, ThermoFisher, USA).
# T3 sequence (Q9BYF1 18-740): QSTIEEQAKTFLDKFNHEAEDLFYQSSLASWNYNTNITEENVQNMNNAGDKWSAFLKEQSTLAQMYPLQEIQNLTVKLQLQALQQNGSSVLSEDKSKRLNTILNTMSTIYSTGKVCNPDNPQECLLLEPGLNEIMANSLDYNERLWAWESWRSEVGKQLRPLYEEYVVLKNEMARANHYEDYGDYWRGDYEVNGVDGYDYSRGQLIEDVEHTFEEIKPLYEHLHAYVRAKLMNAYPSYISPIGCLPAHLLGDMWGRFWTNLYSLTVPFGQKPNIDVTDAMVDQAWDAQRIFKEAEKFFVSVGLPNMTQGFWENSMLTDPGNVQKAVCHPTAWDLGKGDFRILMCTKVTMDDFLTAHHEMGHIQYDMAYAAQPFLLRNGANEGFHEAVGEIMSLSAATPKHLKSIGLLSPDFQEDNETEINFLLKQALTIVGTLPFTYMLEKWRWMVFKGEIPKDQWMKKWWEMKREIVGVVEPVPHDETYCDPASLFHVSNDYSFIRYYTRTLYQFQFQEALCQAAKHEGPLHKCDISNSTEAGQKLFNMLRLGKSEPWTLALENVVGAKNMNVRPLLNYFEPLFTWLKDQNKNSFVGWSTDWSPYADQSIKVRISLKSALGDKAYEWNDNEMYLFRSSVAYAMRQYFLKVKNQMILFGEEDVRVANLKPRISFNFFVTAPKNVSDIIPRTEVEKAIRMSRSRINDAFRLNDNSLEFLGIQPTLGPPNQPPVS
# T2 sequence (P07711 114-333, species assumed): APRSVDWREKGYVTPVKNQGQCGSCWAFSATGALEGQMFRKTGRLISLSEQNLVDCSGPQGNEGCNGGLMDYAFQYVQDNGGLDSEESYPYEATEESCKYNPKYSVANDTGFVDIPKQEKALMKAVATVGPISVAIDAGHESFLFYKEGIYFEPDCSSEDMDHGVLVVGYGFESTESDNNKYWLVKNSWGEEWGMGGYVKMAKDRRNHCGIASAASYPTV
# T1 sequence (Q9BYF1 18-805): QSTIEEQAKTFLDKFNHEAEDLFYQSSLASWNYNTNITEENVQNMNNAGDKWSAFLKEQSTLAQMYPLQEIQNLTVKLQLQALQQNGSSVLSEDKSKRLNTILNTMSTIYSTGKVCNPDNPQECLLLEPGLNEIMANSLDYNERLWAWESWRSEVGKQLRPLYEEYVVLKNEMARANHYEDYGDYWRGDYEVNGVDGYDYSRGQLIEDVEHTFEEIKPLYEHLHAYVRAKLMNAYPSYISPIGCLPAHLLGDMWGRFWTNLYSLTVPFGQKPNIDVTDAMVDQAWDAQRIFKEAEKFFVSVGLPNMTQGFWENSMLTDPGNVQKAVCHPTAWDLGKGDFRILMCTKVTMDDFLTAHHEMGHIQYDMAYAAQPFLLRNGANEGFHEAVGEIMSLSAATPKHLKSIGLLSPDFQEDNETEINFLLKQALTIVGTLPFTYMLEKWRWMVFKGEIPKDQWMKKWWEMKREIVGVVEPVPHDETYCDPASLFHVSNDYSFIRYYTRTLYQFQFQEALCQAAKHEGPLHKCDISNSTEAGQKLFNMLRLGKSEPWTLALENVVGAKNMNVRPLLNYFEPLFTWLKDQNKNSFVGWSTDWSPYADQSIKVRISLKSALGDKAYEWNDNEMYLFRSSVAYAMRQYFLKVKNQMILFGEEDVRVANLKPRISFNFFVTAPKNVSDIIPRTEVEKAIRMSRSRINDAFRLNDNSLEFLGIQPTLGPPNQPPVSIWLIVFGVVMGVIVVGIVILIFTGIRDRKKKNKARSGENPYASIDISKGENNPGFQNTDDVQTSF
compound,measurement,setting,value
CCC(CC)COC(=O)[C@H](C)N[P@](=O)(OC[C@H]1O[C@@](C#N)(c2ccc3c(N)ncnn23)[C@H](O)[C@@H]1O)Oc1ccccc1 [Remdesivir],inhibition of CPEs,SARS-CoV-2,significantly inhibited the CPEs
CN[C@H]1C(=O)N[C@@H]2Cc3ccc(cc3)Oc3cc4cc(c3O[C@@H]3O[C@H](C(=O)O)[C@@H](O)[C@H](O)[C@H]3NC(=O)CCCCCCCCC(C)C)Oc3ccc(cc3Cl)[C@@H](O)[C@@H]3NC(=O)[C@H](NC(=O)[C@@H]4NC(=O)[C@@H](NC2=O)c2cc(cc(O)c2Cl)Oc2cc1ccc2O)c1ccc(O)c(c1)-c1c(O[C@H]2O[C@H](CO)[C@@H](O)[C@H](O)[C@@H]2O)cc(O)cc1[C@@H](C(=O)NCCCN(C)C)NC3=O [dalbavancin],plasma half-life,[1],5 to 7 days
same,CC50,in vitro,> 3.2 µM
same,protein-bound in plasma,[2],> 90%
same,kon,human ACE2,360000 M⁻¹ s⁻¹
same,serum half-life,[3],5 to 7 days
same,inhibition at 400 µM,cathepsin L; read-out: inhibition of cathepsin L enzymatic activity,~40%
same,tolerability,[4],well tolerated
Oxiglutatione,inhibition of binding of SARS-CoV-2 spike protein to ACE2 (ELISA),[5],inhibited the binding
same,suppression of SARS-CoV-2 spike protein–ACE2 co-precipitation,[6],suppressed the interaction
Polymyxin B sulfate,suppression of SARS-CoV-2 spike protein–ACE2 co-precipitation,[6],suppressed the interaction
cathepsin L inhibitor I,inhibition of cathepsin L enzymatic activity,"cathepsin L; 20 μM, positive control, Ac-FR-AFC substrate, 37 °C 2 h",~ 100%
